What all share (format): cell-based
The test system of one assay is IL-1 production (IL−1産生). As to the kind of experiment: 薬理試験4 IL−1産生抑制作用 (inhibition of IL-1 production, human whole blood). Conditions: same method as pharmacological test 3 (human whole blood, LPS, 37℃, 24 h).
In the next assay the test system is IL-6 production (IL−6産生). Nature of the assay: 薬理試験5 IL−6産生抑制作用 (inhibition of IL-6 production, human whole blood). To be noted: same method as pharmacological test 3 (human whole blood, LPS, 37℃, 24 h).
Assay [1] deals with IFN-γ production (IFN−γ産生). As to the kind of experiment: 薬理試験6 IFN−γ産生抑制作用 (inhibition of IFN-γ production, human whole blood). Conditions: concanavalin A (ConA), 37℃, 48 h, ELISA. A general note: An ELISA detects its analyte on a solid surface through an enzyme-linked reagent.

pIC50: −log10 of the molar value. Bounds are passed on as bounds.

A word on the pIC50: it is the negative decadic logarithm of the IC50, by convention in mol/L. Read a low pIC50 as a large IC50. Turning to `CCOc1ccc(-c2nc(-c3cccc(C(=O)O)n3)cs2)cc1OCC` [実施例2], the pIC50 in the assay on IL-1 production (IL−1産生) was 4.10; in the assay with IL-6 production (IL−6産生) it was at most 4.00; in assay [1], 5.30.
